Converted amounts (≈) assume the structure as drawn.
What was measured:
Type in all cases: cell-based
[1] = tested on: Enterococcus faecalis No. 559; assay: Specific activity against resistant bacterial strains
Protocol: (§1) The tested agents were water-soluble hemin derivatives (compounds VII and XVIII) or DMSO-soluble derivatives (compounds VIII, XV, and XIV). Vancomycin was the reference compound. Each compound was tested in three replicas.
(§2) Sterile single-use flat-bottomed 96-well plates, Petri dishes, pipettes, tips, and test tubes (Pan-Eco, Moscow) were used in the study.
(§3) The nutritional media used were as follows. A working Mueller Hinton broth was prepared from dry media (Mueller Hinton broth, Acumedia, Baltimore) and sterilized by autoclaving at 121° C. for 15 min.
(§4) Staphylococcus aureus was cultured on the Tripticase Soy Agar (BBL) commercially available dry medium. Enterococcus faecalis was cultured on the Columbia Agar Base (BBL) commercially available dry medium. These media were sterilized by autoclaving at 121° C. for 15 min.
(§5) Bacterial inoculum was fixed and equal to 5×10^5 CFU/mL.
(§6) For water-soluble compounds, wells from 2nd through 8th were added with the solvent (water) in an amount of 15 μL per well, then the 1st well was added with 30 μL of the stock solution of the tested compound in water with a concentration of 1×10^3M, and the concentration was adjusted to 0.007×10^3 M by serial twofold dilutions. A 10-μL portion was taken from every well, and 190 μL of the bacterial culture (10^5 CFU) was added per well.
(§7) For DMSO-soluble compounds, wells from 2nd through 8th were added with the solvent (DMSO) in an amount of 10 μL per well, then the 1st well was added with 20 μL of the stock solution of the tested compound in […] with a concentration of 5×10^3M, and the concentration was adjusted to 0.039×10^3 M by serial twofold dilutions. A 2-μL portion was taken from each well, and 198 μL of the bacterial culture (10^5 CFU) was added per well.
(§8) The control comprised wells free of tested compounds (culture growth control). In addition, purity control of nutritional media and solvents was used. Plates were incubated in a thermostat at 36° C. for 24 hours.
(§9) Culture growth was evaluated visually by comparison of how microorganisms grew in the presence of tested compounds and in the absence of them. MSC (the minimal suppressing concentration) was set equal to the last dilution of a tested agent which suppressed bacterial culture growth.

[2] = tested on: Staphylococcus aureus No. 100 KC; assay: as above
Protocol: as §1, §2, §3, §4, §5, §6, §7, §8, §9

[3] = tested on: Staphylococcus aureus No. 25923 ATCC; assay: as above
Protocol: as §1, §2, §3, §4, §5, §6, §7, §8, §9

[4] = tested on: Staphylococcus epidermidis No. 533; assay: as above; conditions: St. epiderm 533; 24 h, 36° C.
Protocol: as §1, §2, §3, §4, §5, §6, §7, §8, §9

[5] = tested on: Enterococcus faecium No. 569; assay: as above; conditions: Ent. faecium 569; 24 h, 36° C.
[6] = tested on: Bacillus subtilis BKM B-501; assay: Antibacterial activity (MIC/MBC), serial dilutions in liquid MH medium
Protocol: (§10) The antibacterial activity of compounds was determined against Bacillus subtilis BKM B-501, Staphylococcus aureus 209P, Enterococcus faecalis BKM B-871, and Micrococcus luteus BKM Ac-2230 strains (acquired from the All-Russia Collection of Microorganisms at the Institute for Biochemistry and Physiology of Microorganisms, Russian Academy of Sciences). The main parameters characterizing the antibacterial activity are the minimal inhibitory concentration (MIC) and minimal bactericidal concentration (MBC). […] MBC is the least concentration that causes the death of all cells.
(§11) MIC was quantified by inhibiting culture growth in a liquid medium with serial dilutions of compounds using a modified procedure [Amsterdam, D., “Susceptibility Testing of Antimicrobials in Liquid Media,” in Antibiotics in Laboratory Medicine, Ed. by Lorian, V., 4th ed., Baltimore: Williams and Wilkins, 1996, pp. 52-111].
(§12) Bacteria were cultured and tests were carried out on an MH liquid medium (Mueller-Hinton medium: a dry extract of beef broth, 4 g/L; starch, 1.5 g/L; casein hydrolyzate, 17.5 g/L; Sigma-Fluka Catalog No. 70192) at 37° C., 100% humidity, and under stirring. Cultures (4th through 7th receeding post-thawing) in the exponential growth phase were used for tests.
(§13) Therefore, a correction for absorption was applied in estimating the optical density of bacterial suspensions for each compound with account for its concentration in the well.
(§14) The protocol for experimental antibacterial activity determination for tested compounds was as follows. A cryovial with the test strain culture (Bacillus subtilis BKIVI B-501, Staphylococcus aureus 209P, Enterococcus faecalis BKM B-871, or Micrococcus luteus BKIVI Ac-2230) in a medium with 7% DMSO stored in liquid nitrogen, was rapidly defrosted, and 1.5 mL of the fresh MH medium was inoculated with 100 μL of the cell suspension. Cells were grown for one day at 37° C. and stirred on an orbital shaker at 150 rpm. The morphologic features of the strain and the absence of contamination with foreign bacteria were verified by: (a) inoculation on an agarized (15 g/L agar) MH medium and observation of the shape and color of the grown colonies and (b) examination of characteristic morphologic features under a microscope (Mikmed-2, LOMO, Russia) equipped with a 40× objective lens. Further bacteria were cultured in 1 mL of the liquid MH medium at 37° C. under stirring. The cells were reseeded every day. Cell cultures were used in tests starting with 3rd reseeding and ending with 6th one.
(§15) For testing, 5 μL of a bacterial suspension in the stationary growth phase was transferred to 1 mL of a sterile MH medium and incubated until the exponential growth phase was attained (3 to 5 h, 37° C., stirring at 150 rpm). To estimate the microorganisms concentration, the optical density (A) of the resulting bacterial culture was measured at a wavelength of 595 nm. The value of A=0.2 measured from a […] portion of the cell suspension in a 96-well plate, with a correction for the medium absorption applied, was set to correspond to 4×10^8 cells/mL for both strains used. Taking into account the cell concentration measurements, the suspension was diluted with the MH medium to a concentration of from 5×10^4 to 1×10^5 cells/mL and transferred to a sterile 96-well plate in an amount of 100 μL, per well. Then, the cells were added with tested compounds and twofold serial dilutions of these compounds in plate's wells were made.
(§16) The controls used were: 100 μL of an additive-free bacterial culture (four wells); a bacterial culture added with 1% DMSO or water in the same volume as in the wells with the maximal concentration of the tested compounds (four wells); and 100 μL of the sterile MH medium without bacteria and without tested compounds for control of occasional contamination in the plate (four wells).

[7] = tested on: Enterococcus faecalis BKM B-871; assay: as above
Protocol: as §10, §11, §12, §13, §14, §15, §16

[8] = tested on: Micrococcus luteus BKM Ac-2230; assay: as above
Protocol: as §10, §11, §12, §13, §14, §15, §16

[9] = tested on: Staphylococcus aureus 209P; assay: as above
Protocol: as §10, §11, §12, §13, §14, §15, §16

Candida albicans No. 927 = assay: Antifungal activity, culture growth with pH indicator; set-up: key to Test culture growth at various dilutions of the agent: (−) No growth; the indicator is blue; (±) Weak growth; the indicator is yellow, but the precipitate of grown cells looks as a diffuse spot; (+) Strong growth; the indicator is yellow, and the cell precipitate looks as a compact spot
Protocol: The subjects of action were Cryptococcus neoformans No. 3465 museum strain cells and Candida albicans No. 927 museum strain cells grown for one day on a glucose-peptone-yeast medium at 32° C. The reference compounds were the following antimycotics: pimafucin, amphotericin, and fluconazole.
Experiments were carried out on round-bottomed 96-well plates (Lenmedpolimer) in two replicas. To the first column (0), added was 10 μL of the stock solution of a water-soluble agent with concentrations of 10^−2 to 10^−3 mol/L; to the second column, added was also the same 10 μL plus 10 μL of the solvent corresponding to the given compound, suspended, 10 μL was transferred to the next well, and so on to the 8th well of the row. Stock solutions of water-insoluble compounds of general formula (I) (compounds V, VIII, XII, XIII, XIV, and hemin) were prepared in DMSO and were diluted with DMSO and the medium. DMSO concentrations in the reaction mixture in a well were ≦5%.
Then, to every well added was 190 μL of a Cr. neoformans cell culture suspension in a synthetic nutritional medium (so that the final cell concentration was approximately 10^3 CFU/mL), this medium containing Bromocresol Blue as a pH-indicator (pH: 5.5; indicator color: blue). As pH reduced to 4.5, the indicator in the culture changed its color to yellow, thereby indicating fungal cell growth. The synthetic medium comprised the following components: salts, amino acids, microelements, vitamins, an antibiotic, and glucose (30 components altogether) [Yarrow, D., “Methods for the Isolation, Maintenance and Identification of Yeasts,” in: The Yeasts. A Taxonomic Study, Ed. by Kurtsman, C. P, and Fell, M., Elsevier, 1998, pp. 77-100]. After being inoculated with a Cr. neoformans cell suspension, the plate was incubated at 32° C. for 1 h with stirring, then transferred to a stationary thermostat and incubated for two and five days at 27° C. After being inoculated with a C. albicans cell suspension, the plates were incubated for 1 h at 32° C. with stirring, then transferred to a stationary thermostat and incubated for one and four days at 27° C.

Cryptococcus humicolus = assay: Antifungal activity against cryptococcosis causative agent (MSC)

## CN[C@H](CC(C)C)C(=O)N[C@H]1C(=O)N[C@@H](CC(N)=O)C(=O)N[C@H]2C(=O)N[C@H]3C(=O)N[C@H](C(=O)N[C@H](C(=O)O)c4cc(O)cc(O)c4-c4cc3ccc4O)[C@H](O)c3ccc(c(Cl)c3)Oc3cc2cc(c3O[C@@H]2O[C@H](CO)[C@@H](O)[C@H](O)[C@H]2O[C@H]2C[C@](C)(N)[C@H](O)[C@H](C)O2)Oc2ccc(cc2Cl)[C@H]1O [Vancomycin, reference compound]
[1]; Enterococcus faecalis, NO.559, read-out: MICs for Vancomycin
  MIC: 1 µg/mL (≈ 0.69 µM)
[2]; Staphylococcus aureus, NO.100KC, read-out: MICs for Vancomycin
  MIC: 1 µg/mL (≈ 0.69 µM)
[3]; Staphylococcus aureus, NO.25923ATCC, read-out: MICs for Vancomycin
  MIC: 1 µg/mL (≈ 0.69 µM)

## C=CC1=C(C)c2cc3[n-]c(cc4nc(cc5[n-]c(cc1n2)c(C)c5CCC(=O)N[C@@H](CCCNC(=N)N)C(=O)N[C@@H](CCCNC(=N)N)C(=O)OC)C(CCC(=O)N[C@@H](CCCNC(=N)N)C(=O)N[C@@H](CCCNC(=N)N)C(=O)OC)=C4C)c(C)c3C=C.[Cl-].[Fe+3] [Compound XXI, 6,7-bis[(N^α-L-Arginyl Methyl Ester)-L-Arginyl]-Protohemin IX]
[1]; Ent. faecalis 559, 24 h, 36° C.
  MICs for hemin derivatives against Gr+ strains: 50 µM
[2]; St. aureus 100 KC, 24 h, 36° C.
  MICs for hemin derivatives against Gr+ strains: 50 µM
[3]; St. aureus 25923, 24 h, 36° C.
  MICs for hemin derivatives against Gr+ strains: 50 µM
[4]
  MICs for hemin derivatives against Gr+ strains: 50 µM
[5]
  MICs for hemin derivatives against Gr+ strains: >50 µM

## Protohemin IX 6(7)-Mono(-Val-Gly-Ala-D-Leu-Ala-D-Val-Val-D-Val-Trp-D-Leu-X-D-Leu-Trp-D-Leu-Trp-NH—CH2CH2OH)amide [Compound XII]
[6]
  MBC: 38 ± 13 µM
[6]; 20 h, MH medium
  MIC: 38 ± 13 µM
[7]
  MBC: >50^3 μM
[7]; 20 h, MH medium
  MIC: 50 µM
[8]
  MBC: >6.3^3 μM
[8]; 20 h, MH medium
  MIC: 1.6 µM
[9]
  MBC: >50^2 μM
[9]; 20 h, MH medium
  MIC: 50 µM
Candida albicans No. 927; dilution 0: 1 × 10^−4 M
  Test culture growth at various dilutions of the agent: ±
Candida albicans No. 927; dilution : 2 of 1 × 10^−4 M
  Test culture growth at various dilutions of the agent: ±
Candida albicans No. 927; dilution : 4 of 1 × 10^−4 M
  Test culture growth at various dilutions of the agent: ±
Candida albicans No. 927; dilution : 8 of 1 × 10^−4 M
  Test culture growth at various dilutions of the agent: +
Candida albicans No. 927; dilution : 16 of 1 × 10^−4 M
  Test culture growth at various dilutions of the agent: +
Candida albicans No. 927; dilution : 32 of 1 × 10^−4 M
  Test culture growth at various dilutions of the agent: +
Candida albicans No. 927; dilution : 64 of 1 × 10^−4 M
  Test culture growth at various dilutions of the agent: +
Cryptococcus humicolus
  MSC: 12.5 µM

— patent publication US8906897B2, “Antimicrobial agents based on hemin derivatives” (Obschestvo S Ogranichennoi Otvetstvennostiyu …, priority 2009, dated 2014)
